Measurements: PMC2248166, “Quantitative peptide binding motifs for 19 human and mouse MHC class I molecules derived using positional scanning combinatorial peptide libraries” (Immunome Research, 2008)

How the values were obtained:
HLA B*1501 = HLA B*1501 (Homo sapiens, UniProt P01889, A329T/A93T/A95T/C349S/D201E/D98Y/E187L/E204Q/E69M/E70A/K202T/N87E/Q94N/R155S/R180W/S121R/S35A/S48A/V306I/V36M/Y140S/Y91S); assay: biochemical; format: binding
H-2 D^b = H-2 D^b (Mus musculus, UniProt P01899); format: binding
HLA B*5101 = HLA B*5101 (Homo sapiens, UniProt P01889, A329T/A93T/A95T/C349S/D138N/D201E/D98Y/E187L/E204Q/E69T/G107R/I218V/K202T/L105A/L119W/N104I/Q94N/R106L/R155S/R180L/S101N/S121T/S35A/S48A/V306I/V36M/Y195H/Y91F); format: binding
H-2 D^d = H-2 D^d (Mus musculus, UniProt P01900); format: binding
HLA B*5801 = HLA B*5801 (Homo sapiens, UniProt P01889, A329T/C349S/D201E/D98Y/E176V/E187L/E204Q/E69T/G107R/I218V/I90N/K202T/L105A/L119I/N104I/N87E/Q89R/Q94S/R106L/R155S/R180L/R86G/S101N/S121R/S35A/S48A/T118I/V127L/V306I/V36M/Y140S/Y91M); format: binding
HLA B*3501 = HLA B*3501 (Homo sapiens, UniProt P01889, A329T/A93T/A95T/C349S/D201E/D98Y/E176V/E187L/E204Q/E69T/I218V/K202T/L119I/Q94N/R155S/R180L/S121R/S35A/S48A/T118I/V127L/V306I/V36M/Y140S/Y91F); format: binding
HLA A*3201 = HLA A*3201 (Homo sapiens, UniProt P04439, A270S/D101S/D185E/E176V/E277Q/F133L/G103R/G107R/G231S/H175R/I121M/I218V/I322F/K168Q/L105A/L300P/L318F/M331R/P208A/P217A/Q94H/R106L/R138Q/S129P/T104I/T323A/T345S/V100E/V321M/V358M); assay: biochemical; format: binding
HLA B*0801 = HLA B*0801 (Homo sapiens, UniProt P01889, A93T/A95T/D138N/E176V/E187T/K202T/Q94N/R180D/S35A/V36M/Y33D/Y91F); assay: biochemical; format: binding
H-2 K^k = H-2 K^k (Mus musculus, UniProt P04223); format: binding
HLA B*5401 = HLA B*5401 (Homo sapiens, UniProt P01889, A329T/C349S/D138N/D201E/E176V/E187T/E204Q/E69G/I76V/K202T/L119W/R155S/R180L/S121T/S35A/S48A/V127L/V306I/V36M/Y140L); format: binding
HLA B*5301 = HLA B*5301 (Homo sapiens, UniProt P01889, A329T/A93T/A95T/C349S/D201E/D98Y/E176V/E187L/E204Q/E69T/G107R/I218V/K202T/L105A/L119I/N104I/Q94N/R106L/R155S/R180L/S101N/S121R/S35A/S48A/T118I/V127L/V306I/V36M/Y140S/Y91F); format: binding
HLA B*2705 = HLA B*2705 (Homo sapiens, UniProt P01889, D138H/D201E/E176V/E204Q/G107R/H137Y/K202T/N104T/N87E/Q56L/Q94K/R106L/R155S/R180L/S101D/S121N/S48T/Y140D/Y33H/Y91C); format: binding; settings: positional scanning combinatorial 9-mer library; normalized to 1.0 for the best residue at each position
HLA B*5802 = HLA B*5802 (Homo sapiens, UniProt P01889, A329T/C349S/D201E/D98Y/E176V/E187L/E204Q/E69T/G107R/I218V/I90N/K202T/L105A/N104I/N87E/Q89R/Q94S/R106L/R155S/R180L/R86G/S101N/S121W/S35A/S48A/V127L/V306I/V36M/Y140S/Y91M); format: binding
HLA A*6802 = HLA A*6802 (Homo sapiens, UniProt P04439, A269V/D140Y/D185E/E176V/E277Q/E87N/F33Y/G231S/I121R/I166T/I218V/L180W/L300P/L318F/N151K/P208A/P217A/Q86R/R138H/R169H/S129P/T345S/V36M); format: binding
HLA B*0702 = HLA B*0702 (Homo sapiens, UniProt P01889); format: binding; settings: positional scanning combinatorial 9-mer library; normalized to 1.0 for the best residue at each position
HLA A*0201 = HLA A*0201 (Homo sapiens, UniProt P04439, D140Y/D185E/D98H/E176V/E277Q/G131W/G231S/I119V/I121R/I166T/I218V/L300P/L318F/N151K/N90K/P208A/P217A/Q86G/Q94H/R138H/R169H/T345S); settings: positional scanning combinatorial 9-mer library; normalized to 1.0 for the best residue at each position
HLA B*1503 = HLA B*1503 (Homo sapiens, UniProt P01889, A329T/A93T/A95T/C349S/D201E/D98Y/E187L/E204Q/K202T/N87E/Q94N/R155S/R180L/S121R/S35A/V306I/V36M/Y140S/Y91S); assay: biochemical; format: binding
HLA A*3001 = HLA A*3001 (Homo sapiens, UniProt P04439, D140H/D185E/E176W/F33S/G80R/H175R/K168Q/R138E/R41S); assay: biochemical; format: binding

Chain of H-2 D^d (P01900 whole entry, looked up): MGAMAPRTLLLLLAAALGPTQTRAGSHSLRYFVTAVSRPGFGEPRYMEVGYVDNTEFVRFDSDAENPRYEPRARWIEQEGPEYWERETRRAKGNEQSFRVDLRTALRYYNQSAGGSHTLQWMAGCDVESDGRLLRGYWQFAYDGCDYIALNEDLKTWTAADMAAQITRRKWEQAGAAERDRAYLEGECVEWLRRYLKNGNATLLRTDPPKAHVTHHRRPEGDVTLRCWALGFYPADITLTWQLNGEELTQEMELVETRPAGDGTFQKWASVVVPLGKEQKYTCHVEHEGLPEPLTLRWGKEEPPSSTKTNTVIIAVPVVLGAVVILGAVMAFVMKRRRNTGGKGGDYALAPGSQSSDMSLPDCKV
Chain of H-2 K^k (P01887 21-119): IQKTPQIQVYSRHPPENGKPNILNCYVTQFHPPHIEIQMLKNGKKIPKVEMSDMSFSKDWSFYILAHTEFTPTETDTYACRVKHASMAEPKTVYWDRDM
Chain of H-2 K^k (P04223 22-369): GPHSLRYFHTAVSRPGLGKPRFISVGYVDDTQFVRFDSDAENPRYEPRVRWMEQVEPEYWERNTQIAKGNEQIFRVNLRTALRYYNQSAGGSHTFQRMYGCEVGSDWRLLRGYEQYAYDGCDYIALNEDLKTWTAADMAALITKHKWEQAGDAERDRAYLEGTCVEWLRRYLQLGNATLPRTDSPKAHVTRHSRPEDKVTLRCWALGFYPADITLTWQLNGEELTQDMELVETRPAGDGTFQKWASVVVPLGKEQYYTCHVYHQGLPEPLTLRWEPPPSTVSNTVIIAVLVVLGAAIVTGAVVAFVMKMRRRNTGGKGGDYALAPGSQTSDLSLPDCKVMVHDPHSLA
Chain of H-2 D^b (P01887 21-119): as the sequence (P01887 21-119) above
Chain of H-2 D^b (P01899 25-362): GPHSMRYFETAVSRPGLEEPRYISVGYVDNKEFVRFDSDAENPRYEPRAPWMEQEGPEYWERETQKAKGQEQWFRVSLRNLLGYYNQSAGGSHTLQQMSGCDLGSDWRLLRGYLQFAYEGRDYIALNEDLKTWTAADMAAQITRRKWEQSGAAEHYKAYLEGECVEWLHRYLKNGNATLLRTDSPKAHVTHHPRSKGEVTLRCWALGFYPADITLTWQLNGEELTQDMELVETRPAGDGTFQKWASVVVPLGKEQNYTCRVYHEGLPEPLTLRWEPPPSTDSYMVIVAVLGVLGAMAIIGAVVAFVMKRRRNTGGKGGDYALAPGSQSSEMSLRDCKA

Row | Sequence | Normalized average relative binding affinity (ARB), HLA B*1501 (HLA B*1501) | Normalized average relative binding affinity (ARB), H-2 Db (H-2 D^b) | Normalized average relative binding affinity (ARB), HLA B*5101 (HLA B*5101) | Normalized average relative binding affinity (ARB), H-2 Dd (H-2 D^d) | Normalized average relative binding affinity (ARB), HLA B*5801 (HLA B*5801) | Normalized average relative binding affinity (ARB), HLA B*3501 (HLA B*3501) | Normalized average relative binding affinity (ARB), HLA A*3201 (HLA A*3201) | Normalized average relative binding affinity (ARB), HLA B*0801 (HLA B*0801) | Normalized average relative binding affinity (ARB), H-2 Kk (H-2 K^k) | Normalized average relative binding affinity (ARB), HLA B*5401 (HLA B*5401) | Normalized average relative binding affinity (ARB), HLA B*5301 (HLA B*5301) | Normalized average relative binding affinity (ARB), HLA B*2705 (HLA B*2705) | Normalized average relative binding affinity (ARB), HLA B*5802 (HLA B*5802) | Normalized average relative binding affinity (ARB), HLA A*6802 (HLA A*6802) | Normalized average relative binding affinity (ARB), HLA B*0702 (HLA B*0702) | Normalized average relative binding affinity (ARB), HLA A*0201 (HLA A*0201) | Normalized average relative binding affinity (ARB), HLA B*1503 (HLA B*1503) | Normalized average relative binding affinity (ARB), HLA A*3001 (HLA A*3001)
1 | XXEXXXXXX [3064.0044] | 0.040 | 0.032 | 0.070 | 0.0030 | 0.095 | 0.073 | 0.14 | 0.034 | 0.27 | 0.0049 | 0.031 | 0.071 | 0.049 | 0.046 | 0.052 | 0.037 | 0.044 | 0.0031
2 | XSXXXXXXX [3064.0036] | 0.59 | 0.80 | 0.10 | 0.022 | 1.0 | 0.059 | 0.21 | 0.13 | 0.014 | 0.050 | 0.031 | 0.012 | 1.0 | 0.27 | 0.0043 | 0.0092 | 0.13 | 0.38
3 | FXXXXXXXX [3064.0005] | 0.59 | 1.0 | 0.25 | 0.34 | 0.34 | 0.50 | 0.090 | 0.57 | 1.0 | 0.74 | 0.14 | 0.60 | 0.081 | 0.53 | 0.21 | 1.0 | 1.0 | 0.035
